Reference: patent US20100098746A1, “COMPOSITIONS AND METHODS FOR TREATING PERIODONTAL DISEASE COMPRISING CLONIDINE, SULINDAC AND/OR FLUOCINOLONE” (Warsaw Orthopedic, Inc., priority 2008, published 2010)

How the values were obtained:
[1] = test system: mechanical allodynia, Bennett Model; assay: Rat chronic constriction injury model, von Frey test of mechanical allodynia (sulindac); assay type: in vivo, Wistar rat; conditions: intraperitoneally at 0.4 mg/kg/day
Description: (§1) The efficacy of a 5 Month Sulindac/Polymer Drug Depot in the Rat Chronic Constriction Injury Model was evaluated. The animal model was the Bennett Model (Wistar rat). The purpose: To determine whether a 5 month polymer sulindac-eluting depot can improve pain associated behavioral responses in a rat model of neuropathic pain.
(§2) Experimental Design: Four loose chromic gut ligatures, 1 mm apart, were tied around the common sciatic nerve at mid-thigh. Each animal received treatment of test or control article—according to the dosing described in Table 10.
(§3) To date, the present study was conducted for a period of 57 days and employed the following two tests: (1) the Hargreaves test on days 7, 14, 21, 28, 35, 42, 49, and 56; and (2) the von Frey test on days 8, 15, 22, 29, 36, 43, 50, and 57.

[2] = test system: thermal hyperalgesia, Bennett Model; assay: Rat chronic constriction injury model, Hargreaves test of thermal hyperalgesia (sulindac); assay type: in vivo, Wistar rat; conditions: intraperitoneally at 0.4 mg/kg/day
Description: as §1, §2, §3

murine RAW NO+ cell line = conditions: for inhibitory effects on osteoclast differentiation and resorption: clonidine tested at 100, 10, 1, 0.1 μM, sulindac at 140, 70, 35, 17.5, 8.75 μM, RANK L 30 ng/ml; for lowest inhibitory concentration: osteoclast differentiation and resorption
Description: The purpose of this set of experiments was to narrow the number of periodontal candidates by determining the lowest dose of the drug that inhibits or blocks osteoclast differentiation and/or resorption.
Cell culture complete media was prepared by adding 10% FBS to high glucose DMEM. • 2. A nitric oxide-containing murine RAW NO+ cell line, f frozen in DMSO-containing medium under liquid nitrogen, was used for these assays. • 3. Cells were thawed in a 37° C. water bath and resuspended in complete media (see #1 above). • 4. The cells were plated in a 175 cm^2 polystyrene, white top, non-adherent culture flask at a density of 1×10^4 cells/cm^2 and allowed to settle overnight (Day-1, Table G). • 5. The media was changed approximately 24 hours after the initial plating (Day 0, Table G). • 6. After approximately two days of proliferation, the cells were harvested with a cell scraper, collected in a 50 mL conical tube and centrifuged at 1000 rpm to pellet the cells. • 7. The cell pellets were resuspended in 4 mL complete media, counted with a hemocytometer and plated at a density of 0.125×10^4 cells/0.25 ml/well in a 16 well osteologic assay slide (Day 1, Table G). • 8. The cells were allowed to adhere for 24 hours, the media was removed and fresh differentiation media was prepared that contained complete media+RANK L (30 ng/ml; Pepro Tech #315-11)+/−drug (Day 2, Table G). […] Step 8 was repeated on days 5 and 7 (Table G). • 10. On day 9 the plates were harvested by removing the media, rinsing with dH2O and treated with bleach for 7 minutes. • 11. The bleach was disposed of in the drug waste container and the wells and gaskets were removed from the slide. • 12. The plates were rinsed with H2O 5 times, dried and analyzed for matrix degradation as described below
The clonidine concentrations tested were 100 μM, 10 μM, 1 μM, 0.1 μM and the sulindac concentrations tested were 140 μM, 70 μM, 35 μM, 17.5 μM, and 8.75 μM.

[3] = test system: neuropathic pain, CCI model; assay: 2-month chronic constriction injury (CCI) model of neuropathic pain (fluocinolone), thermal paw withdrawal latency and mechanical threshold; assay type: in vivo
Description: A 2-month chronic constriction injury (CCI) model of neuropathic pain was used to evaluate different formulations of a corticosteroid, fluocinolone, encapsulated in bioerodable polymers compared to fluocinolone given subcutaneously (SC). Different formulations as provided in Table B below were evaluated for reducing pain-associated behaviors: Thermal paw withdrawal latency was evaluated at baseline 7, 14, 21, 28, 35, 42, 49, and 56 days post-operatively, while mechanical threshold was evaluated at 8, 15, 22, 29, 36, 43, 50, and 57 days post-operatively. […] The pain of periodontal disease is due to the inflammation. […] Mechanical allodynia was measured using von Frey monofilaments (Stoelting, Wood Dale, Ill.) with varying stiffness (2.0-15.0 g) on Days 1, 8, 15, 22, 29, 36, 43, 50 and 57 as described previously. […] The 50% paw withdrawal threshold response was determined by a sequential increasing and/or decreasing of the stimulus strength (the “up-down method” of Dixon). […] The 50% paw withdrawal threshold was calculated using the formula: 10 (Xf+kd)/10,000, where Xf is the final von Frey filament used (log units), k is a value that analyzes the response pattern (taken from the table published by Chaplan et al.), and d is the mean difference between stimuli (log units). The mean and standard error of the mean (SEM) were determined for each treatment group.

[4] = test system: thermal hyperalgesia, Bennett Model; conditions: subcutaneously at 0.02 mg/kg/day
Description: as §1, with “five” for “5”, “Clonidine/Polymer” for “Sulindac/Polymer”, “clonidine-eluting” for “sulindac-eluting”, “pain with an inflammatory component.” for “pain.”
(§4) Experimental Design: Four loose chromic gut ligatures, 1 mm apart, were tied around the common sciatic nerve at mid-thigh. Each animal received treatment of test or control article—according to the dosing described in Table 5.
(§5) The present study was conducted for a period of 64 days and employed the following two tests: (1) the Hargreaves test; and (2) the von Frey test. The Hargreaves Tests of Thermal Hyperalgesia were conducted on days 7, 14, 21, 28, 35, 42, 49, 56 and 63. The von Frey monofilament test of mechanical allodynia (performed the day following Thermal testing) were conducted on days-8, 15, 22, 29, 36, 43, 50, 57 and 64.

[5] = test system: mechanical allodynia, Bennett Model; conditions: subcutaneously at 0.02 mg/kg/day
Description: as §1, with “five” for “5”, “Clonidine/Polymer” for “Sulindac/Polymer”, “clonidine-eluting” for “sulindac-eluting”, “pain with an inflammatory component.” for “pain.”
as §4, §5

[6] = test system: inflammation induced in minipigs; conditions: high dose clonidine (150 μg), injected; days 1, 3 and 4 post-surgery
Description: In a separate experiment, inflammation was induced in minipigs and the minipigs were given clonidine, bupivacaine, or morphine. The surgical site was reviewed for inflammation while the minipigs were anesthesized and on day 4. Scoring of inflammation was reviewed in the area of incision for redness with the following scores: 0—no redness; 1—slightly red limited to area of incision; 2—massive spread redness and swelling with the following scores 0—no swelling; 1—slightly swelling; 3—massive swelling. Redness and swelling were summed up so the minimum score is 0 and maximum score is 4. […] The low dose clonidine given was 75 μg.

Question: With `CC1=C(CC(=O)O)c2cc(F)ccc2/C1=C\c1ccc([S+](C)[O-])cc1` (stereo not drawn) [sulindac] as the compound, how does the “pain behavioral response, mechanical allodynia, compared to unloaded polymer depots (85/15 PLGA Control)” value [1] read?
Answer: Its value is “reduced the behavioral response”.

Question: And the “pain behavioral response, thermal hyperalgesia, compared to unloaded polymer depot (85/15 PLGA Control)” value [2]?
Answer: Its value is “consistently reduced the behavioral response”.

Question: And the “inhibitory effects on osteoclast differentiation and resorption” value (murine RAW NO+ cell line)?
Answer: Its value is “significant inhibitory effects”.

Question: And the lowest inhibitory concentration (murine RAW NO+ cell line)?
Answer: The lowest inhibitory concentration was 140.3 µM.

Question: `CC1(C)O[C@@H]2C[C@H]3[C@@H]4C[C@H](F)C5=CC(=O)C=C[C@]5(C)[C@@]4(F)[C@@H](O)C[C@]3(C)[C@]2(C(=O)CO)O1` [fluocinolone, 6α-,9α-Difluoro-16 α-hydroxyprednisolone 16,17-acetonide] was tested. Which pain threshold [3] did it give?
Answer: Its pain threshold is “reduced pain threshold”.

Question: Which “pain behavioral response, thermal hyperalgesia, compared to unloaded polymer depots” value [4] does the source give for `Clc1cccc(Cl)c1N=C1NCCN1` [clonidine, 2,6-dichloro-N-2-imidazolidinyldenebenzenamine] here?
Answer: Its value is “consistently reduced the behavioral response”.

Question: What about the “pain behavioral response (percentage of baseline), thermal hyperalgesia” value ([4]; unloaded polymer depots 45%) of the same compound?
Answer: The value was 58%.

Question: And the “pain behavioral response, mechanical allodynia, compared to unloaded polymer depots” value [5]?
Answer: Its value is “reduced the behavioral response”.

Question: What about the “inflammation score (redness + swelling, 0 to 4)” value [6] of the same compound?
Answer: The value was “very low”.

Question: And the “osteoclast differentiation and bone resorption compared to RANK only treated control wells” value (murine RAW NO+ cell line; clonidine at 100 μM and 10 μM)?
Answer: Its value is “significantly decreased”.

Question: What about the “inhibitory effects on osteoclast differentiation and resorption” value (murine RAW NO+ cell line) of the same compound?
Answer: Its value is “significant inhibitory effects”.

Question: And the lowest inhibitory concentration (murine RAW NO+ cell line)?
Answer: Its lowest inhibitory concentration is 10 µM.
